Columns and labels:
T-cells = test: In vivo activity: CD25 expression on CD4+ or CD8+ T-cells of mice stimulated with anti-CD3 antibody; details: 2 μg anti-CD3 antibody, 24 hours
Experimental: (§1) A method of determining the pharmacodynamic profile of Cbl-b inhibitors was performed by dosing strains of mice with competent immune systems such as C57BL/6 or BALB/c with a Cbl-b inhibitor. The Cbl-b inhibitor was dissolved in a suitable formulation and administered by one of various routes such as intravenous (IV), intraperitoneal (IP), subcutaneous (SC), or oral (PO), at a suitable dose level and frequency (e.g. twice per day BID or thrice per day TID) as informed by prior pharmacokinetic and tolerability studies. Following administration of the Cbl-b inhibitor, T-cells and indirectly other immune cells (e.g. via cytokine production) were stimulated in vivo by administration of an anti-CD3 antibody or antigen-binding fragment thereof in PBS at defined amounts such as 2 μg or 10 μg per animal by routes such as IV or IP (See Hirsh et al., J. Immunol., 1989; Ferran, et al., Eur. J. Immunol., 1990). Additional study control arms included groups of mice treated with a vehicle formulation alone (i.e., formulation without the Cbl-b inhibitor and anti-CD3 antibody), a formulation containing the Cbl-b inhibitor alone, a formulation containing the anti-CD3 antibody alone, PBS alone, or combinations of these agents. The level of immune activation was then assessed by analysis of plasma cytokine levels and/or expression of activation markers on immune cells (e.g. T-cells). Blood or lymphoid organs (e.g. spleen) were collected at defined time points (e.g. 8 hours or 24 hours). Blood samples were processed to collect plasma for determination of cytokine levels using standard methods known in the art. Cytokines measured included IL-2, IFNγ, and TNFα. Additional blood samples and lymphoid tissues were processed for flow cytometric analysis of immune cells (e.g. T-cells) using standard methods to determine expression of cell type-specific markers and activation markers such as CD25 and/or CD69. Augmentation of immune stimulation by Cbl-b inhibitor administration was assessed by comparing the relative concentrations of cytokines in plasma, or the expression levels of activation markers on immune cells between appropriate groups (e.g. mice treated with Cbl-b inhibitor and 2 μg anti-CD3 antibody versus mice treated with vehicle and 2 μg anti-CD3 antibody).
(§2) Cbl-b inhibitors were tested to determine their ability to induce or enhance the level of cytokines (e.g. IL-2, IFNγ, and TNFα) in blood obtained from treated mice stimulated with an anti-CD3 antibody, which is indicative of modulation of the immune response. Cbl-b inhibitors were also tested to determine their ability to induce or enhance the expression of cell surface markers on T-cells (e.g. CD25 and/or CD69) isolated from treated mice stimulated with an anti-CD3 antibody, which is indicative of modulation of the immune response.
(§3) Readouts were reported as fold change over baseline. The fold change was calculated from the mean value of mice treated with Cbl-b inhibitor and 2 μg anti-CD3 antibody, with the baseline defined as the mean value of mice treated with vehicle and 2 μg anti-CD3 antibody. Increases in the percentage of cells with surface expression of CD25 on CD4+ T-cells or CD8+ T-cells greater than 1.5-fold over baseline at 24 hours were considered a positive response. Increases in the plasma concentration of IL-2, IFNγ, and TNFα greater than 1.5-fold over baseline at 8 hours post-stimulation were also considered a positive response (Table 8). Fold changes were ranked into bins according to their readouts as follows: A indicates >2.50, B indicates 2.01-2.50, C indicates 1.51-2.00, D indicates 1.00-1.50, and E indicates <1.00.

Cbl-b [1] = target: T1, Cbl-b (Homo sapiens, UniProt Q13191); test: Cbl-b activity assay (Cbl-b inhibition assay), TR-FRET of Cbl-b interaction with UbcH5B-Ub; format: biochemical; details: assay buffer with 100 mM NaCl, 60 nM Src kinase; read-out: Cbl-b activity IC50
T1 sequence (Q13191 36-427): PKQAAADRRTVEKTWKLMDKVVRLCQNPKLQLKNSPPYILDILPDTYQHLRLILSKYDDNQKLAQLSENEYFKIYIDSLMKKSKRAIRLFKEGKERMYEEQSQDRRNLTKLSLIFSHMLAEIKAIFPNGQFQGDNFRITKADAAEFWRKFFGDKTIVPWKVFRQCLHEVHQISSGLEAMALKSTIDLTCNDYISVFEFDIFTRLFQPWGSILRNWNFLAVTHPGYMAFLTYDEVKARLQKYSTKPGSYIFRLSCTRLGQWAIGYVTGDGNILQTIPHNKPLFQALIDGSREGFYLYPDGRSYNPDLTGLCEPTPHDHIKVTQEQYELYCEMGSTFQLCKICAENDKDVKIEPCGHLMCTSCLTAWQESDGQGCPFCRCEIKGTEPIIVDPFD
How it was run: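 TR-FRET readout of Cbl-b binding to Bodipy-fluorescein N-terminally labeled Ub conjugated to UbcH5B C85K, measured with compound present. After compound incubation, 60 nM Src kinase with 1 mM ATP and 5 mM MgCl2 (final) was added for 1.5 h, then a further 1 h incubation; asterisked values used 50 mM NaCl buffer and 30 nM Src.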

Cbl-b [2] = target: T1, Cbl-b; test: Cbl-b inhibition assay (Cbl-b activity assay, FRET, Biological Example 1; 100 mM NaCl, 60 nM Src kinase); format: biochemical; details: upper bound stated in text lists; read-out: IC50 values in the Cbl-b inhibition assay of Biological Example 1
How it was run: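 Binding-based Cbl-b activity assay. Src-phosphorylated, N-terminally biotin-Avi-tagged Cbl-b recruits labelled UbcH5B-Ub, and proximity to streptavidin-terbium yields FRET.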

[3] = system: IL-2, IFNγ, and TNFα in plasma; test: In vivo activity: plasma cytokine levels (IL-2, IFNγ, TNFα) in mice stimulated with anti-CD3 antibody; details: 2 μg anti-CD3 antibody, 8 hours post-stimulation
Experimental: as §1, §2, §3

primary human B cells = test: B cell activation assay (CD69 on anti-IgM stimulated B cells); format: cell-based; details: AUC of dose response curve (10 μM to 1 nM) of CD69 MFI normalized to DMSO control
Experimental: Peripheral blood mononuclear cells (PBMC) were obtained either: 1) by using Ficoll-Paque™ (GE Healthcare) for separation of peripheral blood hematopoietic cells from buffy coats of healthy human donors; or 2) directly from LeukoPak donations. Human primary B cells were isolated from the PBMCs utilizing negative selection with commercial kits following the manufacturer's protocol (StemCells Catalog #17954) to yield >95% CD20+ cells assessed by flow cytometry. Primary human B cells were plated at 0.7-1×10^5 per well in a 96-well plate with Cbl-b inhibitors over a dose ranging from 10 μM to 1 nM and incubated at 37° C. 5% CO2, with a final DMSO concentration of <0.5%. Cells were stimulated with anti-IgM for 20 hours at 37° C. 5% CO2. Surface activation markers on mature CD20^+ IgD^+ B cells were monitored by FACS using an anti-CD69 antibody (BD Biosciences).
Cbl-b inhibitors were tested to determine their ability to induce or enhance surface expression of cell surface markers on B cells (e.g., CD69), which is indicative of B cell activation.
Readouts were reported as area under curve (AUC) of the dose response curve of CD69 mean fluorescence intensity (MFI) normalized to the DMSO control. Baseline for this study was the measurement obtained from primary human B cells treated with DMSO in the presence of 2.5 μg/mL of anti-IgM-F(ab′)2. […] Compounds were ranked into bins according to their readouts as follows: A indicates ≤0.5, B indicates 0.5-1.00, C indicates 1.01-1.50, and D indicates ≥1.51.

Cbl-b (residues 36-427) = Cbl-b (residues 36-427) (Homo sapiens, UniProt Q13191); test: Cbl-b binding assay (SPR, Biacore T200); details: 20° C., 1:1 binding model
Sequence of Cbl-b (residues 36-427) (Q13191 36-427): as above
How it was run: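 Affinities derived from global 1:1 steady-state or kinetic fits of double-referenced, solvent-corrected SPR data, 20 °C, NeutrAvidin-capture chip. Compound series (top 100 or 50 μM, 8–10 points) injected 50 s, 90–180 s dissociation. Asterisked values used 50 mM instead of 100 mM NaCl and 30 nM Src kinase.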

SMILES	CD4+ T-cell % CD25+ (T-cells; 135 mpk PO BID)	CD8+ T-cell % CD25+ (T-cells; 135 mpk PO BID)	IC50 (Cbl-b [1]) [µM]	IC50 (Cbl-b [2]) [µM]	IFNγ plasma concentration ([3]; 90 mpk IP BID)	IL-2 plasma concentration ([3]; 90 mpk IP BID)	TNFα plasma concentration ([3]; 90 mpk IP BID)	IFNγ plasma concentration ([3]; 90 mpk IP TID)	IL-2 plasma concentration ([3]; 90 mpk IP TID)	TNFα plasma concentration ([3]; 90 mpk IP TID)	CD4+ T-cell % CD25+ (T-cells; 90 mpk IP BID)	CD8+ T-cell % CD25+ (T-cells; 90 mpk IP BID)	CD4+ T-cell % CD25+ (T-cells; 90 mpk IP TID)	CD8+ T-cell % CD25+ (T-cells; 90 mpk IP TID)	CD69 MFI AUC (primary human B cells)	further results
Cn1cnnc1CC1(c2cccc(N3Cc4c(cc(CN5CCC(F)CC5)cc4C(F)(F)F)C3=O)c2)COC1 [Compound 489, 6-[(4-fluoropiperidin-1-yl)methyl]-2-(3-{3-[(4-methyl-1,2,4-triazol-3-yl)methyl]oxetan-3-yl}phenyl)-4-(trifluoromethyl)-3H-isoindol-1-one]	C (C indicates 1.51-2.00)	D (D indicates 1.00-1.50)	< 0.1	≤ 0.1												
C[C@H](c1cc2c(c(C(F)(F)F)c1)CN(c1cccc(C3(Cc4nncn4C)COC3)c1)C2=O)N1CCC(F)CC1 [Example 622b, (R)-6-(1-(4-fluoropiperidin-1-yl)ethyl)-2-(3-(3-((4-methyl-4H-1,2,4-triazol-3-yl)methyl)oxetan-3-yl)phenyl)-4-(trifluoromethyl)isoindolin-1-one]	B (B indicates 2.01-2.50)	D (D indicates 1.00-1.50)														
C[C@H](Sc1nncn1C)c1cccc(NC(=O)c2cccc(C(F)(F)F)n2)c1 [Compound 57a, (S)-N-(3-(1-((4-methyl-4H-1,2,4-triazol-3-yl)thio)ethyl)phenyl)-6-(trifluoromethyl)picolinamide]					D (D indicates 1.00-1.50)	A (A indicates >2.50)	A (A indicates >2.50)	B (B indicates 2.01-2.50)	A (A indicates >2.50)	A (A indicates >2.50)	D (D indicates 1.00-1.50)	E (E indicates <1.00)	D (D indicates 1.00-1.50)	C (C indicates 1.51-2.00)	B (B indicates 0.5-1.00)	
C[C@@H](c1cc2c(c(C(F)(F)F)c1)CN(c1cccc(C3(Cc4nncn4C)COC3)c1)C2=O)N1CCC(F)CC1 [Example 622a, (S)-6-(1-(4-fluoropiperidin-1-yl)ethyl)-2-(3-(3-((4-methyl-4H-1,2,4-triazol-3-yl)methyl)oxetan-3-yl)phenyl)-4-(trifluoromethyl)isoindolin-1-one]	B (B indicates 2.01-2.50)	D (D indicates 1.00-1.50)														
C[C@@H](Sc1nncn1C)c1cccc(NC(=O)c2cccc(C(F)(F)F)n2)c1 [Compound 57b, (R)-N-(3-(1-((4-methyl-4H-1,2,4-triazol-3-yl)thio)ethyl)phenyl)-6-(trifluoromethyl)picolinamide]					E (E indicates <1.00)	E (E indicates <1.00)	D (D indicates 1.00-1.50)	E (E indicates <1.00)	E (E indicates <1.00)	E (E indicates <1.00)	C (C indicates 1.51-2.00)	E (E indicates <1.00)	E (E indicates <1.00)	D (D indicates 1.00-1.50)	A (A indicates ≤0.5)	
C[C@@H](Cc1nncn1C)c1cccc(N2Cc3c(cccc3C(F)(F)F)C2=O)c1 [Compound 255b]	E (E indicates <1.00)	E (E indicates <1.00)	1 to 3	≤ 10												Kd (Cbl-b (residues 36-427)): 3 to 10 µM; CD4+ T-cell % CD25+ (T-cells; 180 mpk PO BID): E (E indicates <1.00); CD8+ T-cell % CD25+ (T-cells; 180 mpk PO BID): E (E indicates <1.00)

— US20220324835A1 (Nurix Therapeutics, Inc., priority 2018, published 2022)
